Values quoted from earlier work, collected in patent publication US20230019058A1, “METHOD FOR THE TREATMENT OF VIRAL INFECTIONS” (Softhale NV, priority 2020, published 2023).

Key:
influenza virus = conditions: reported by S. Matsuyama et al.; cited from earlier work
human coronavirus = conditions: cultured cells; reported by S. Matsuyama et al.; cited from earlier work
[1] = system: respiratory syncytial virus; conditions: reported by S. Matsuyama et al.; cited from earlier work
SARS-CoV-2 = conditions: reported by S. Matsuyama et al., read-out: effective concentration to block SARS-CoV-2 replication (EC90); cited from earlier work

CC(C)C(=O)OCC(=O)[C@@]12O[C@H](C3CCCCC3)O[C@@H]1C[C@H]1[C@@H]3CCC4=CC(=O)C=C[C@]4(C)[C@H]3[C@@H](O)C[C@@]12C [ciclesonide, (11β, 16α)-16, 17-[[(R)-cyclohexylmethylene]bis(oxy)]-11-hydroxy-21-(2-methyl-1-oxopropoxy)-pregna-1,4-diene-3,20-dione]
suppression of replication of influenza virus (influenza virus): did not suppress
suppression of human coronavirus replication (human coronavirus): suppressed human coronavirus replication
suppression of replication of respiratory syncytial virus [1]: did not suppress
EC90 (SARS-CoV-2): 6.3 µM
